{
  "source": "patent US12570709B2",
  "about": "“Self-assembling peptide amphiphiles displaying a transforming growth factor beta 1 (TGF-ß1) mimetic epitope” (Northwestern University, priority 2021, dated 2026)",
  "key": {"[1]": {"experiment": "Fluorescence anisotropy of TAMRA-labeled epitopes", "type": "physicochemical", "details": "10 mol % co-assembly", "procedure": "PA co-assemblies of diluent PA, TGF-β1 mimetic PA, and fluorescent dye-conjugated TGF-β1 mimetic PA were prepared in a 90:8:2 mol % ratio. The dye-conjugated PA was synthesized as previously described with a tetramethylrhodamine (TAMRA) molecule conjugated to the N-terminal amine of the TGF-β1 mimetic epitope. The PA solutions were prepared as previously described and diluted immediately before measurement to 100 μM PA, 100 μM CaCl2), and 30 mM NaCl. Fluorescence measurements were performed on an ISS PC1 photon counting steady-state fluorescence spectrometer equipped with a 300 W xenon arc lamp with power set to 18 A. Excitation slit widths of 1 mm (8 nm bandwidth) and emission slit widths of 0.5 mm (4 nm bandwidth) were used. Fluorescence anisotropy measurements were performed with λex=554 nm and λem=580 nm according to the equation:\n[formula] Where F∥ is the intensity parallel to the excitation plane, F⊥ is the intensity perpendicular to the excitation plane, and g is the g-factor, which accounts for differences in emissions between the perpendicular and parallel gratings.^1 Measurements were taken in triplicate and averaged for final data analysis. Transverse-Relaxation Nuclear Magnetic Resonance Spectroscopy"}, "[2]": {"system": "collagen II, aggrecan and F-actin in human chondrocytes", "experiment": "Immunocytochemistry staining and fluorescence intensity analysis after three days", "type": "cell-based", "details": "three days in vitro", "procedure": "For immunocytochemistry (ICC), 12-mm glass coverslips were coated with sterile filtered 0.01 mg/mL poly-D-lysine (Sigma-Aldrich) solution and incubated overnight at 37° C. The coverslips were washed three times with sterile water and air-dried for at least 30 minutes. Cells were seeded on coverslips at a density of approximately 3,000 cells/coverslip and cultured for 24 h. Cells were then treated with PA in solution for 3 days in vitro. Following treatment, cells were fixed in 4% paraformaldehyde for 15 minutes at room temperature.\nFixed samples were permeabilized and blocked in a solution of 0.1% (v/v) Triton X-100 and 1% normal horse serum (Invitrogen) for 2 hours at room temperature. Samples were incubated with primary antibodies overnight at 4° C. The following primary antibodies were used: rabbit anti-Sox9 (1:500, Abcam), mouse anti-Aggrecan (1:500, ThermoFisher), mouse anti-Collagen II (1:500, ThermoFisher), and mouse anti-Nuclei (1:500, Sigma-Aldrich). The next day, samples were incubated with AlexaFluor 488 secondary antibody, AlexaFluor 555 secondary antibody, Phalloidin AlexaFluor 488, and/or Phalloidin AlexaFluor 633 (1:1000, Invitrogen) for 2-3 h at room temperature. For 2D cell culture, samples were then incubated with DAPI (1:1000, Invitrogen) for 10 minutes at room temperature. If not already on a glass coverslip, samples were mounted with Immu-Mount (Thermo Scientific) and imaged on a Nikon A1R Spectral microscope. Image analysis was performed using ImageJ software."}, "[3]": {"system": "C28/I2 human articular chondrocytes", "description": "PA solutions (backbone PA, TGF PA, ln TGF PA, and peptide only) were prepared at 1 wt % as previously described, under sterile conditions. For cell treatments lasting <24 h, PA treatment solutions or native rhTGF-β1 protein (R&D Systems) were diluted in starvation medium, which comprised of DMEM High Glucose Medium (Gibco) supplemented with 0.5% fetal bovine serum (Denville Scientific), 100 U/mL penicillin, and 100 μg/mL streptomycin (Gibco). For cell treatments lasting 24 h or more, PA treatment solutions or native rhTGF-β1 protein (R&D Systems) were diluted in complete growth medium. PA solutions were prepared at a range of concentrations, 1, 10, 50, and 100 μM, where the concentration refers to the concentration of the epitope PA.\nFor cell viability assays, cells were seeded in 48-well plates at a density of approximately 15,400 cells/well and cultured for 24 h. Cells were then treated with PA in solution for 24 h or 3 days in vitro.\nFor 2D viability assays, cells were cultured and treated with PA solutions in vitro as previously described. After 24 h or 3 days of culture, cells were washed with HBSS (Gibco), and media was exchanged with HBSS containing 2 μM Calcein AM (Invitrogen) and 100 ng/mL propidium iodide (Sigma-Aldrich) for 30 minutes at 37° C. Cells were washed with HBSS and imaged."}},
  "note": "Bridge positions count the residues as written; N and C are the ends. Ends that are not written are not given here. I, II: the chains in the order shown. * marks the point of attachment. Palmitoyl = CCCCCCCCCCCCCCCC(=O)*",
  "data": [
    {"substance": "TGF PA-a: backbone PA-a (SEQ ID NO: 7) conjugated to cyclic TGF-β1 mimetic peptide (SEQ ID NO: 1) by a linker; co-assembled with diluent Backbone PA-a (chain Palmitoyl-AAEEK-OH; peptide CESPLKRQC; disulfide II:1-II:9; not fully specified (some residues); also: co-assembled with diluent backbone PA-a)", "values": [
      {"measurement": "fluorescence anisotropy (epitope rotational diffusion), compared to TGF PA-b", "setting": "[1]", "value": "significantly lower anisotropy values"},
      {"measurement": "aggrecan synthesis", "setting": "[2]; 10 μM, ICC", "value": "significantly increased aggrecan synthesis at similar levels"},
      {"measurement": "collagen II production compared with native rhTGF-β1", "setting": "[2]; 10 μM, ICC", "value": "significantly more collagen II production than native rhTGF-β1"},
      {"measurement": "chondrocyte phenotype (F-actin staining)", "setting": "[2]", "value": "maintained healthy chondrocyte phenotypes and prevented hypertrophy"},
      {"measurement": "biocompatibility compared with corresponding Backbone PA-b systems", "setting": "[3]", "value": "higher biocompatibility"}
    ]}
  ]
}
